Data published in article PMC4142417, “Epigenetic Impacts of Ascorbate on Human Metastatic Melanoma Cells” (Frontiers in Oncology, 2014).
pIC50: −log10 of the molar value. Like-named read-outs stand apart in the source and are kept apart here.

Key:
[1] = tested on: DNA methyltransferase (DNMT) activity in MeWo melanoma cells; experiment: DNMT activity in nuclear extracts of treated MeWo cells; format: cell-based, human; conditions: 200 μM for 1 h, nuclear extract 12 h after treatment
Method: (§1) DNMT activity was analyzed in the nuclear extracts with the DNMT activity/inhibition assay (Active Motif) according to the procedure described by the manufacturer.
(§2) Global DNMT activity was determined in nuclear extracts of MeWo and BLM cells 12 h after 1 h treatment with 200 μM or 8 mM ascorbate.

[2] = tested on: human HDAC1, HDAC2, HDAC3, HDAC4, HDAC5, HDAC6, HDAC7, HDAC8, HDAC9, HDAC10, and HDAC11; experiment: HDAC-inhibitor profiling assay (fluorometric, recombinant HDACs of classes I, II, and IV); format: biochemical; conditions: 50 μM and 8 mM ascorbate
Method: The HDAC profiling assay was performed on basis of fluorometric measurement by Scottish Biomedical (Scottish Biomedical, Glasgow, UK). The percentage inhibition values of 50 μM and 8 mM ascorbate against human HDAC1, HDAC2, HDAC3, HDAC4, HDAC5, HDAC6, HDAC7, HDAC8, HDAC9, HDAC10, and HDAC11 was determined. Both concentrations of ascorbate were tested in two experiments, each in duplicates.

LOX-IMVI melanoma cells = tested on: LOX-IMVI melanoma cells; design: method as in PMID 24330097; conditions: 8 mM, ref [5]; cited from earlier work
[3] = tested on: 60 cancer cell lines of the NCI60 panel; design: method as in PMID 24330097; conditions: ref [5], read-out: overall IC50 of all 60 cancer cell lines; cited from earlier work
[4] = tested on: human HDACs (HeLa nuclear extract); experiment: HDAC-inhibitor screening assay with HeLa nuclear extract; format: biochemical; conditions: 5–8000 μM, 2 h at 37°C
Method: Determination of a possible HDAC-inhibitor activity of ascorbate was done by using the HDAC assay kit (Active Motif, Rixensart, Belgium). Ascorbate was diluted in assay buffer to the final concentrations of 5, 10, 20, 50, 100, 200 μM, and 8 mM. Assay was performed according to manufacturer’s protocol. Briefly, ascorbate was incubated with HeLa nuclear extract as a source of human HDACs for 2 h at 37°C and the developing time was set to 10 min. Each experiment was performed in triplicates and repeated three times.
(A) Overall HDAC inhibition in cellular extracts of the human cell line HeLa by increasing concentrations of ascorbate (5–8000 μM). As reference inhibitor 100 μM suberoylanilide hydroxamic acid (SAHA) was used. Every concentration was tested three times in triplicates. (B) Specific fluorometric profiling assay using recombinant human HDACs of classes I, II, and IV. Specific inhibition values were generated for the treatment with 50 μM and 8 mM ascorbate. Inhibition values for every HDAC were yielded by two experiments, each performed in duplicates. Shown are mean ± SD. One-way ANOVA Dunnett’s multiple comparison test, n.s. indicates not significant.

[5] = tested on: DNA methyltransferase (DNMT) activity in BLM melanoma cells; experiment: DNMT activity in nuclear extracts of treated BLM cells; format: cell-based, human; conditions: 200 μM for 1 h, nuclear extract 12 h after treatment
Method: as §1, §2

[6] = tested on: 9 human melanoma cell lines; design: method as in PMID 24330097; conditions: ref [5], cited from earlier work
BLM melanoma cells = experiment: Cell-cycle analysis (propidium iodide, FACS); format: cell-based, human; conditions: 8 mM for 1 h
Method: BLM cells were incubated with ascorbate at 8 mM. After 0–24 h (in 2 h intervals) the cells (1 × 10^6) were harvested, washed with cold PBS, fixed with 75% ethanol, and incubated at 4°C for at least 1 h. Cells were then centrifuged and washed twice in cold PBS. Intracellular DNA was labeled with propidium iodide solution [propidium iodide […] (Sigma) and RNase […] (Thermo Scientific) in PBS] and incubated at 4°C for 30 min in the dark. Cell cycle was analyzed using flow cytometry and FACSDiva software (BD Biosciences, Heidelberg, Germany). As shown previously ([5]), pharmacological doses of ascorbate in the low millimolar-range induce cell death in human cancer cells. However, since in the latter publication we only performed end-point analyses 24 h after incubation of the cells with ascorbate, for the current project we exposed BLM cells to pharmacological 8 mM ascorbate for 1 h, and the cells were ethanol-fixed every 2 h for 24 h to closely monitor cell-cycle alterations at 2 h intervals over 24 h. The cell cycle was analyzed with FACS after staining of the cells with propidium iodide. […] At 12 h post ascorbate exposure only a small percentage of the BLM cells were shifted toward the sub-G1 fraction of cells. Therefore, the 12 h time point after ascorbate exposure was chosen for the following experiments.  Figure 2 Pharmacological ascorbate induces apoptosis in human metastatic BLM melanoma cells in a time-dependent manner. BLM cells were treated with 8 mM ascorbate for 1 h. Cells were ethanol-fixed every 2 h for 24 h, stained with propidium iodide, and cell cycle was analyzed with FACS. Depicted are the FACS plots for the untreated control cells and for 2, 4, 6, 8, 12, 16, 20, and 24 h after ascorbate exposure. […] Gray colored graphs indicate the control cells; black colored graphs (2–8 h) the initial shift into G2/M phase; red colored graphs (12–24 h) the subsequent shift into sub-G1 fraction.

[7] = tested on: GLUT-1 expression (HIF-1α downstream target) in melanoma cell lines; design: method as in PMID 24330097; conditions: treatment at the individual IC50 concentrations, ref [5]; cited from earlier work
[8] = design: method as in PMID 23670640; conditions: i.v. administration of 70 g/m^2; ref [16]; cited from earlier work
[9] = tested on: miRNA expression in BLM melanoma cells; experiment: miRNA expression chip analysis; format: cell-based, human
Method: microRNA was isolated from BLM cells using the miRNeasy kit (Qiagen, Hilden, Germany) according to the procedure described by the manufacturer. miRNA expression analysis was performed on BLM melanoma cells (five groups: untreated; 200 μM, 8 mM ascorbate treated, 4 and 12 h after the 1 h treatment, all in triplicates) using the human miRNA Microarray Release 14.0, 8x15K (Agilent, Waldbronn, Germany) based on Sanger miRbase (release 14.0). Two hundred nanograms of RNA were used per sample. The miRNA expression analysis was kindly performed at the Genomic Core Facility of the European Molecular Biology Laboratory (EMBL, Heidelberg, Germany) according to the supplier’s instructions. Evaluation of raw data generated at the Genomic Core Facility of the EMBL was performed as described previously ([32]).
Figure 6 Ascorbate alters the expression of miRNA in melanoma cells. A miRNA expression chip analysis was performed on human metastatic BLM melanoma cells (5 groups: untreated, 200 μM ascorbate, 8 mM ascorbate, both 4 and 12 h after ascorbate exposure; all in triplicates) using the human miRNA Microarray Release 14.0, 8x15K (Agilent Technologies) based on Sanger miRbase (release 14.0). A total of 151 miRNAs were differentially expressed in response to ascorbate.

[10] = 8 mM vs. 200 μM for 1 h, after 12 h
[11] = 12 h after 1 h exposure, 8 mM vs. 200 μM ascorbate

For `O=C1O[C@H]([C@@H](O)CO)C(O)=C1O` [ascorbate, ascorbic acid], the “increase of DNMT activity” value [1] is listed as 4%, the “inhibition of the 11 human HDACs” value [2] is listed as “neither the physiological 50 μM nor the pharmacologic 8 mM ascorbate showed a significant inhibition” and the intracellular peroxide radicals (LOX-IMVI melanoma cells) is listed as “high amount”. For the same molecule, the “percentage of sub-G1 (apoptotic) cells determined by FACS” value (LOX-IMVI melanoma cells) was “increased percentage”, the pIC50 [3] was 2.35 and the “overall HDAC inhibition” value [4] was “only a marginal inhibitory activity”. For the same molecule, the “increase of DNMT activity” value [5] was 18%, the “IC50 for all melanoma cell lines” value ([6]; NCI60 melanoma cell lines) was “low millimolar range” and the pIC50 ([6]; NCI60 melanoma cell lines, read-out: IC50 for all melanoma cell lines) was 2.51. The pIC50 ([6]; NCI60 melanoma cell lines, read-out: IC50 range across melanoma cell lines) was 2.07 to 3.70, the “cytotoxic effect on melanoma cells” value ([6]; physiological ascorbate (200 μM)) was “no cytotoxic effect” and the “G2/M fraction of cells” value (BLM melanoma cells; 2 to 8 h after exposure) was “steadily increased”. For the same molecule, the “sub-G1 fraction of DNA fragmented cells (indicative for apoptosis)” value (BLM melanoma cells; 12 h post-treatment) was “prominent increase”, the “cell cycle shift toward sub-G1 fraction” value (BLM melanoma cells; 20 h post-treatment) was “completely shifted toward the sub-G1 fraction” and the GLUT-1 expression [7] was “decreased”. The blood peak concentration [8] was “up to 49 mM”, the “number of miRNAs differentially expressed in response to ascorbate” value ([9]; 200 μM or 8 mM for 1 h, 4 and 12 h after exposure) was 151 and the “number of up-regulated miRNAs” value [9, 10] was 32. The “up-regulation of the 32 miRNAs” value [9, 10] was 4- to 38 fold, the “Up-regulation of hsa-miR-99b” value [9, 11] was 2.44 2 × log^2 and the “Up-regulation of hsa-miR-125b-2” value [9, 11] was 2.8 2 × log^2. The “Up-regulation of hsa-miR-134” value [9, 11] was 2.15 2 × log^2, the “Up-regulation of hsa-miR-135a” value [9, 11] was 2.45 2 × log^2 and the “Up-regulation of hsa-miR-339-3p” value [9, 11] was 2.47 2 × log^2. For the same molecule, the “Up-regulation of hsa-miR-345” value [9, 11] was 2.82 2 × log^2, the “Up-regulation of hsa-miR-375” value [9, 11] was 3.65 2 × log^2 and the “Up-regulation of hsa-miR-422a” value [9, 11] was 4.29 2 × log^2. For the same molecule, the “Up-regulation of hsa-miR-490-5p” value [9, 11] was 3.91 2 × log^2, the “Up-regulation of hsa-miR-516a-3p” value [9, 11] was 2.56 2 × log^2 and the “Up-regulation of hsa-miR-564” value [9, 11] was 3.28 2 × log^2. For the same molecule, the “Up-regulation of hsa-miR-583” value [9, 11] was 3.97 2 × log^2, the “Up-regulation of hsa-miR-596” value [9, 11] was 5.26 2 × log^2 and the “Up-regulation of hsa-miR-614” value [9, 11] was 2.61 2 × log^2. The “Up-regulation of hsa-miR-617” value [9, 11] was 2.33 2 × log^2, the “Up-regulation of hsa-miR-629” value [9, 11] was 3.38 2 × log^2 and the “Up-regulation of hsa-miR-630” value [9, 11] was 4.3 2 × log^2. For the same molecule, the “Up-regulation of hsa-miR-654-5p” value [9, 11] was 3.39 2 × log^2, the “Up-regulation of hsa-miR-662” value [9, 11] was 3.59 2 × log^2 and the “Up-regulation of hsa-miR-663” value [9, 11] was 2.05 2 × log^2. For the same molecule, the “Up-regulation of hsa-miR-708” value [9, 11] was 3.48 2 × log^2, the “Up-regulation of hsa-miR-718” value [9, 11] was 2.97 2 × log^2 and the “Up-regulation of hsa-miR-887” value [9, 11] was 5.14 2 × log^2. For the same molecule, the “Up-regulation of hsa-miR-1181” value [9, 11] was 2.06 2 × log^2, the “Up-regulation of hsa-miR-1225-5p” value [9, 11] was 2.38 2 × log^2 and the “Up-regulation of hsa-miR-1228” value [9, 11] was 2.24 2 × log^2. The “Up-regulation of hsa-miR-1246” value [9, 11] was 2.13 2 × log^2, the “Up-regulation of hsa-miR-1268” value [9, 11] was 2.84 2 × log^2 and the “Up-regulation of hsa-miR-1915” value [9, 11] was 2.22 2 × log^2. The “Up-regulation of hsa-miR-1972” value [9, 11] was 2.22 2 × log^2, the “Up-regulation of hsa-miR-1973” value [9, 11] was 3.08 2 × log^2 and the “Up-regulation of hsa-miR-2117” value [9, 11] was 2.65 2 × log^2.
